Measurements taken from the NIST ThermoML archive (doi:10.1016/j.jct.2015.07.042).
± gives the expanded uncertainty stated by the source.

[1] = 333.15 K; 100 kPa; Liquid; Vibrating tube method
[2] = 338.15 K; 100 kPa; Liquid; Vibrating tube method
[3] = 343.15 K; 100 kPa; Liquid; Vibrating tube method
[4] = 348.15 K; 100 kPa; Liquid; Vibrating tube method
[5] = 353.15 K; 100 kPa; Liquid; Vibrating tube method
[6] = 358.15 K; 100 kPa; Liquid; Vibrating tube method
[7] = 363.15 K; 100 kPa; Liquid; Vibrating tube method
[8] = 368.15 K; 100 kPa; Liquid; Vibrating tube method

CCCCn1cc[n+](C)c1.CS(=O)(=O)[O-] [1-butyl-3-methylimidazolium methanesulfonate]
mass density [1]: 1150.6 ± 1.1 kg/m3 | mass density [2]: 1147.4 ± 1.1 kg/m3 | mass density [3]: 1144.3 ± 1.1 kg/m3 | mass density [4]: 1141.2 ± 1 kg/m3 | mass density [5]: 1137.9 ± 1 kg/m3 | mass density [6]: 1134.9 ± 1 kg/m3 | mass density [7]: 1131.9 ± 1 kg/m3 | mass density [8]: 1128.8 ± 1 kg/m3 | mass density (373.15 K; 100 kPa; Liquid; Vibrating tube method): 1125.8 ± 1 kg/m3

CCCCn1cc[n+](C)c1.[Cl-] [1-butyl-3-methylimidazolium chloride]
mass density (308.15 K; 100 kPa; Metastable liquid; Vibrating tube method): 1079.4 ± 1 kg/m3 | mass density (313.15 K; 100 kPa; Metastable liquid; Vibrating tube method): 1076.6 ± 1 kg/m3 | mass density (318.15 K; 100 kPa; Metastable liquid; Vibrating tube method): 1073.7 ± 1 kg/m3 | mass density (323.15 K; 100 kPa; Metastable liquid; Vibrating tube method): 1070.9 ± 1 kg/m3 | mass density (328.15 K; 100 kPa; Metastable liquid; Vibrating tube method): 1068.1 ± 1 kg/m3 | mass density (333.15 K; 100 kPa; Metastable liquid; Vibrating tube method): 1065.2 ± 1 kg/m3 | mass density (338.15 K; 100 kPa; Metastable liquid; Vibrating tube method): 1062.4 ± 1 kg/m3 | mass density (343.15 K; 100 kPa; Vibrating tube method; Liquid): 1059.6 ± 1 kg/m3 | mass density (348.15 K; 100 kPa; Vibrating tube method; Liquid): 1056.9 ± 1 kg/m3 | mass density (353.15 K; 100 kPa; Vibrating tube method; Liquid): 1054.3 ± 1 kg/m3 | mass density (358.15 K; 100 kPa; Vibrating tube method; Liquid): 1051.7 ± 1 kg/m3 | mass density (363.15 K; 100 kPa; Vibrating tube method; Liquid): 1049 ± 1 kg/m3 | mass density (368.15 K; 100 kPa; Vibrating tube method; Liquid): 1046.4 ± 1 kg/m3 | mass density (373.15 K; 100 kPa; Vibrating tube method; Liquid): 1043.9 ± 1 kg/m3

CCCCn1cc[n+](C)c1.COP(=O)([O-])OC [1-butyl-3-methyl-1H-imidazolium dimethylphosphate]
mass density (293.15 K; 100 kPa; Liquid; Vibrating tube method): 1166.5 ± 1.5 kg/m3 | mass density (298.15 K; 100 kPa; Liquid; Vibrating tube method): 1163.2 ± 1.5 kg/m3 | mass density (303.15 K; 100 kPa; Liquid; Vibrating tube method): 1159.4 ± 1.5 kg/m3 | mass density (308.15 K; 100 kPa; Liquid; Vibrating tube method): 1156.2 ± 1.5 kg/m3 | mass density (313.15 K; 100 kPa; Liquid; Vibrating tube method): 1152.7 ± 1.5 kg/m3 | mass density (318.15 K; 100 kPa; Liquid; Vibrating tube method): 1149.5 ± 1.5 kg/m3 | mass density (323.15 K; 100 kPa; Liquid; Vibrating tube method): 1146.1 ± 1.4 kg/m3 | mass density (328.15 K; 100 kPa; Liquid; Vibrating tube method): 1143 ± 1.4 kg/m3 | mass density [1]: 1139.7 ± 1.4 kg/m3 | mass density [2]: 1136.5 ± 1.4 kg/m3 | mass density [3]: 1133.3 ± 1.4 kg/m3 | mass density [4]: 1130.1 ± 1.4 kg/m3 | mass density [5]: 1126.9 ± 1.4 kg/m3 | mass density [6]: 1123.7 ± 1.4 kg/m3 | mass density [7]: 1120.6 ± 1.4 kg/m3 | mass density [8]: 1117.4 ± 1.4 kg/m3
